Experimental data taken from US8372839B2, “Bipartite inhibitors of bacterial RNA polymerase” (priority 2005, dated 2013).
Starred links: 1 amine or outer side, 2 acyl side, 3 side chain; linkers in the order of their positions; H or OH if unused. Positions of bridges follow the written chain, without caps; N, C: chain ends. Non-standard residues stand in square brackets, D forms with d. Residues, ends and D or L forms follow the SMILES beside them. *: point of attachment. X2 = CO[C@H]1/C=C/O[C@@]2(C)Oc3c(C)c(O)c4c(O)c(cc(OCC(=O)NCCCCCCCCCCCCN*)c4c3C2=O)NC(=O)/C(C)=C\C=C\[C@H](C)[C@H](O)[C@@H](C)[C@@H](O)[C@@H](C)[C@H](OC(C)=O)[C@@H]1C; X1 = N=C(CCCSCC(=O)[*:3])NCCCC[C@H](N[*:1])C(=O)[*:2]

What was measured:
[1] = target: T1, Escherichia coli RNAP (Escherichia coli, UniProt P0A8T7+P0A8V2); test: biochemical; type: biochemical; details: for inhibition of transcription (in words): transcription assay, RNAP and [Asn516]β-RNAP
T1 construct: made in house
Method: RNAP was prepared as described in Niu, et al. (1996) Cell 87, 1123-1134. [Asn516]β-RNAP, a strongly rifamycin-resistant RNAP derivative (see Jin, et al. (1988) J. Mol. Biol. 202, 45-58) was prepared in the same manner, except that plasmid pRL706-516N was used in place of plasmid pREII-NHα. [Plasmid pRL706-516N, which encodes C-terminally hexahistidine tagged [Asn516]β, was constructed from plasmid pRL706 (Severinov, et al. (1997) J. Biol. Chem. 272, 24137-24140) by use of site-directed mutagenesis (QuikChange Site-Directed Mutagenesis Kit; Stratagene).]
RNAP or [Asn516]β-RNAP (3 fmol; Example 3.1) and each test compound (250 fmol-100 pmol) were pre-equilibrated 30 min at 37° C. in 15 μl buffer A (50 mM Tris-HCl, pH 8.0, 100 mM KCl, 10 mM MgCl2, 1 mM dithiothreitol, 10 ug/ml bovine serum albumin, and 5% glycerol). To the reaction mixture, was added 1 μl of 1 μM DNA fragment comprising positions −60 to +46 of the bacteriophage T5 N25 promoter (1 pmol; prepared as in Revyakin, et al. (2006) Science, in press), and, following incubation 15 min at 37° C., RNA synthesis was initiated by addition of […] of 6.7 mM ATP and 30 μM α[^32P]-UTP (0.6 Bq/fmol). Following 10 min at 37° C., the reaction was terminated by addition of 10/j 80% formamide, 10 mM EDTA, 0.04% bromophenol blue, and 0.04% xylene cyanol. Reaction products were heated […] at 90° C. and were analyzed by urea-PAGE (Sambrook, et al. (2001) Molecular Cloning: A Laboratory Manual, CSHL Press, Cold Spring Harbor, N.Y.), and quantified using a storage-phosphor scanner.

[2] = system: Escherichia coli strain D21 f2/tolC; test: Susceptibility assay (spot on top agar); type: cell-based; details: for lowest concentration of test compound solution resulting in detectable inhibition of bacterial growth: 2.5 μl aliquots spotted, 12 h at 37° C.
Method: Aliquots (2.5 μl) of 1.56, 3.12, 6.25, 12.5, 25, 50, 100, 200, and 400 μM solutions of a test compound were spotted on plates containing Escherichia coli strain D21 f2/tolC (Fralick, et al. (1994) J. Bacteriol. 176, 6404-6406; ˜10^8 cells) in LB top agar (Sambrook, et al. (2001) Sambrook, et al. (2001) Molecular Cloning. A Laboratory Manual, CSHL Press, Cold Spring Harbor, N.Y.; 3.5 ml) overlaid on LB agar (Sambrook, et al. (2001) Sambrook, et al. (2001) Molecular Cloning: A Laboratory Manual, CSHL Press, Cold Spring Harbor, N.Y.; 25 ml).

[3] = target: [Asn516]β-RNAP (Escherichia coli, UniProt P0A8T7+P0A8V2, D516N)
Method: Following 10 min at 37° C., the reaction was terminated by addition of 10/j 80% formamide, 10 mM EDTA, 0.04% bromophenol blue, and 0.04% xylene cyanol.

Row | Molecule | inhibition of transcription (in words) [1] | lowest concentration of test compound solution resulting in detectable inhibition of bacterial growth [2] [µM] | other results
1 | CC[C@H](C)[C@H](NC(=O)CNC(=O)[C@@H](NC(=O)[C@H](Cc1ccccc1)NC(=O)[C@H](Cc1ccc(O)cc1)NC(=O)[C@@H]1CCC(=O)NCC(=O)NCC(=O)N[C@@H](C)C(=O)NCC(=O)N[C@@H](CCCCNC(=N)CCCSCC(=O)NCCCCCCCCCCCCNC(=O)COc2cc3c(O)c4c(O)c(C)c5c(c24)C(=O)[C@@](C)(O/C=C/[C@H](OC)[C@@H](C)[C@@H](OC(C)=O)[C@H](C)[C@H](O)[C@H](C)[C@@H](O)[C@@H](C)/C=C/C=C(/C)C(=O)N3)O5)C(=O)N[C@@H](C(C)C)C(=O)N2CCC[C@H]2C(=O)N1)C(C)C)C(=O)NCC(=O)N[C@H](C(=O)N1CCC[C@H]1C(=O)N[C@H](C(=O)N[C@@H](CO)C(=O)N[C@@H](Cc1ccccc1)C(=O)N[C@@H](Cc1ccc(O)cc1)C(=O)NCC(=O)O)[C@@H](C)CC)[C@@H](C)O [rifamicrocin 1-12, {rifamycin SV}—{CH2C(O)NH(CH2)12NHC(O)CH2S(CH2)3C(NH2^+)}-{[Lys5]microcin J25}] (GGAG[X1](X2)VPEYFVGIGTPISFYG-OH; lactam N-8 (inferred); C-terminus assumed) | potently to inhibit transcription | – | IC50 [1]: 2 nM
2 | CO[C@H]1/C=C/O[C@@]2(C)Oc3c(C)c([O-])c4c(O)c(cc(O)c4c3C2=O)NC(=O)/C(C)=C\C=C\[C@H](C)[C@H](O)[C@@H](C)[C@@H](O)[C@@H](C)[C@H](OC(C)=O)[C@@H]1C.[Na+] [rifamycin SV, reference compound] | – | 50 | –
3 | {Rifamycin SV}—{CH2C(O)NH(CH2)nNHC(O)CH2S(CH2)3C(NH2^+)}-{[Lys5]MccJ25} [rifamicrocin 1-6] | potently to inhibit transcription | – | –
4 | {Rifamycin SV}—{CH2C(O)NH(CH2)nNHC(O)CH2S(CH2)3C(NH2^+)}-{[Lys5]MccJ25} [rifamicrocin 1-8] | potently to inhibit transcription | – | –
5 | {Rifamycin SV}—{CH2C(O)NH(CH2)nNHC(O)CH2S(CH2)3C(NH2^+)}-{[Lys5]MccJ25} [rifamicrocin 1-10] | potently to inhibit transcription | 12.5 | potency on bacterial growth relative to rifamycin SV ([2]; vs rifamycin SV): ~4 times higher
6 | {rifamycin SV}—{CH2C(O)NH(CH2)10NHC(O)(CH2)2(C2N3)(CH2)4C(O)}-{[Lys5]microcin J25} [rifamicrocin 2-10] | potently to inhibit transcription | – | potency relative to prior-art rifamycin B, [Asn516]β-RNAP [3]: approximately 2 times higher
